Assays:
[1] = Oxygen Radical Absorbance Capacity (ORAC); settings: Trolox equivalents

Row | SMILES | ORAC (μmol TE/gm) [1] | DPPH IC50 (DPPH scavenging)
1 | O=C(O)c1cc(O)c(O)c(O)c1 [Gallic acid, gallic acid] | 6712 μmol TE/gm | 0.32 µg/mL
2 | O=C1O[C@H]([C@@H](O)CO)C(O)=C1O [Vitamin C, Ascorbic acid] | 3400 μmol TE/gm | 1.93 µg/mL

— patent US20100034762A1, “Novel enrichment methods for gallic acid esters including 1-O-galloy1-bata-D-glucose and mucic acid gallates medicaments, therapeutic applications and methods of treatment thereof” (priority 2008, published 2010)
